Reference: publication PMC8861431, “Tissue Pharmacokinetic Properties and Bystander Potential of Hypoxia-Activated Prodrug CP-506 by Agent-Based Modelling” (Frontiers in Pharmacology, 2022)
Read-outs that look alike come from different tables or passages of the source.

Experiments:
[1] = test system: HCT-116 cells (PORko-G, HCT-116 WT, POR-R); assay: Cellular metabolism assay (LC-MS/MS of reduced metabolites); assay type: in vitro ADME, human; conditions: anoxic cultures
Experimental: Aerobic and anoxic conditions were achieved as described above. Cells (5 x 10^5 per well) were seeded with 350 µl medium in duplicate into 24-well plates and left to attach for 2 h in a humidified 37°C incubator. A working solution of CP-506 was prepared in culture medium to achieve a 100 µM concentration in each well after the addition of a 500 µl volume. Plates were exposed to drug for 1 h in a humidified 37°C incubator. Metabolism was then halted by the addition of two-volumes of ice-cold acetonitrile containing 2 µM of internal standard for each analyte. Samples were stored at −80°C until LC-MS/MS analysis.
(§1) The LC system for tandem MS consisted of an Agilent 1200 autosampler (4°C) and binary pump, a 3.0 × 50 mm, 1.8-micron Zorbax SB-C18 column (Agilent; PN: 827975-302) and 2.1 × 7 mm guard column (Alltech, IL) maintained at 35°C, at a pressure of <400 bar and flow rate of 0.3 ml/min. The mobile phase comprised a gradient of 0.01% formic acid in 80% acetonitrile - 20% water, v/v (solvent A), and 0.01% formic acid in water (solvent B). Initial mobile phase composition was 20% solvent A and 80% solvent B, increasing to 60% A (0–3 min) then 80% A (3–5.45 min), returning to initial conditions (5.5–6 min). Post-run time was 1 min, and the total run time was […]. Mass spectrometric detection was carried out using an Agilent 6410 triple quadrupole mass spectrometer equipped with a multimode ionization (MMI) source. The mass spectrometer was operated in electrospray positive ionization mode using multiple reaction monitoring (MRM), with Q1 & Q3 set to unit resolution ([…]). The electrospray ionization parameters, optimized for the parent molecular ion ([M+H]+) abundance were: drying gas temperature 325°C, vaporiser temperature 150°C, drying gas flow 5 L/min, nebuliser pressure 50 psi, capillary voltage 1.8 kV, Delta EMV 300 V. Ultra-pure nitrogen was used as collision gas. The divert valve feature of the Agilent 6410 triple quadrupole mass spectrometer was utilised to prevent the eluate from entering the ionisation source chamber during the first 0.5 min of each run. For CP-506 samples, positively charged ions representing the [M+H]+ for CP-506 and CP-506-D8 were collisionally dissociated to form specific product ions which were monitored in MS2 (unit resolution). The MRM transition, ionization mode, collision energy, dwell time, fragmentor voltage and retention time for all compounds is provided in Supplementary Table S2. Agilent MassHunter software (v.4.04.00) was used for data acquisition and chromatographic peak integration.

[2] = Media stability studies (stirred medium without serum, 37°C); assay type: physicochemical; conditions: for half-life at 100 µM: 37°C, aerobic, medium without serum/cells, read-out: Half-life (T1/2) in stirred medium
Experimental: The stability of each compound was determined in stirred medium (without serum) maintained under aerobic conditions by the constant supply of a humidified gas mixture comprised of 21% O2, 5% CO2 with balance N2. Vials were spiked with 100 µM of the relevant compound, and samples were collected using a positive displacement pipettor for up to 3 h thereafter. The collected samples were then treated with two-volumes of ice-cold acetonitrile containing 2 µM of the relevant deuterated (D8) internal standard and stored at −80°C until LC-MS/MS analysis.
as §1

HCT-116 cell line panel = assay: Anti-proliferative IC50 assay of authentic CP-506 metabolites; assay type: cell-based, human
Experimental: Cells (700–1,000 per well) were seeded with 100 µl culture medium into 96-well plates and left to attach for 2 h in a humidified 37°C incubator. Compounds were prepared in culture medium and serially diluted (1:3) in the well volume. […] Aerobic experiments were performed under standard tissue culture conditions (21% O2), and the anoxic experiments were performed in parallel in a 5% H2/Pd catalyst anaerobic chamber (Shellab Bactron, Sheldon manufacturing Inc., Cornelius, OR) using pre-equilibrated media and plasticware. All anoxia experiments were conducted using a catalyst-scrubbed anaerobic chamber, unless otherwise specified, with gas oxygen measurements of <1 ppm O2. Cells were then washed three times and left to grow for 96 h before cell density determination using a sulforhodamine B (SRB) assay ([Vichai and Kirtikara, 2006]). To this end, the cells were fixed by layering 50 µl of trichloroacetic acid (40% w/v in MilliQ water) on top of the culture media (150 µl) in each well for 1 h at 4°C. Plates were rinsed under running tap water and stained with 50 µl of SRB (0.4% w/v in MilliQ water containing 1% v/v acetic acid) for 30 min at room temperature. Plates were rapidly destained by rinsing three times in tap water containing 1% (v/v) acetic acid. The stain was solubilized by adding 100 µl of 10 mM unbuffered Tris base to each well with gentle rocking for 1 h. Plates were read on a Biotek ELx808 Absorbance Microplate Reader at 490 nm using KC4 software. The IC50 value (concentration required to reduce staining to 50% of the untreated control on the same plate) for each compound was determined by interpolation using a 4-parameter logistic regression model.
FIGURE 3 Hypoxia-dependent metabolism of CP-506 leads to the formation of a multitude of short-lived species with variable cytotoxicity. (A) Bioreductive metabolism of CP-506 under normoxic (21% O2) and anoxic conditions (<1 ppm O2). Concentrations of CP-506 and its metabolites (CP-506H, CP-506M and CP-506M-Cl2) were quantified by mass spectrometry with reference to the appropriate deuterated (D8) internal standard. Values are the mean ± SEM for three independent experiments. (B) Stability of CP-506 metabolites in culture medium (without cells) at 37°C. Concentrations were determined by mass spectrometry using standard curves generated from authenticated stocks. […] IC50 values are the mean ± SEM of duplicate wells for three independent experiments. T-tests were performed using GraphPad Prism 8 (ns, p-value > 0.05; *, p-value ≤ 0.05; **, p-value ≤ 0.01; ***, p-value ≤ 0.001).

[3] = ref Hicks et al., 2007; Foehrenbacher et al., 2013a, 2013b; cited from earlier work
[4] = ref Guise et al., 2010; cited from earlier work
POR-R MCLs = conditions: established value for the internal standard; ref Wilson et al., 2004; cited from earlier work
[5] = stirred medium without serum or cells

Compound: CCN1CCN(C(=O)c2cc(N(CCO)CCO)c(S(C)(=O)=O)cc2NO)CC1 [CP-506H-(OH)2, (5-(Bis(2-hydroxyethyl)amino)-2-(hydroxyamino)-4-(methylsulfonyl)phenyl)(4-ethylpiperazin-1-yl)methanone]
- Detection of metabolite in anoxic cultures [1]: undetectable
- half-life at 100 µM [2, 5]: 0.0417 h

Compound: CCN1CCN(C(=O)c2cc(N(CCCl)CCCl)c(S(C)(=O)=O)cc2NO)CC1 [CP-506H-Cl2, (5-(Bis(2-chloroethyl)amino)-2-(hydroxyamino)-4-(methylsulfonyl)phenyl)(4-ethylpiperazin-1-yl)methanone]
- Anti-proliferative IC50 of metabolite (HCT-116 cell line panel; direct exposure of monolayers to authentic metabolite, Figure 3C: 5 days, normoxic 21% O2): limited potency
- half-life at 100 µM [2]: 2.35 h
- Fold longer half-life than CP-506H or CP-506M ([2]; stirred medium, Figure 3B): ≥ 10 fold

Compound: CCN1CCN(C(=O)c2cc(N(CCO)CCO)c(S(C)(=O)=O)cc2N)CC1 [CP-506M-(OH)2, (2-Amino-5-(bis(2-hydroxyethyl)amino)-4-(methylsulfonyl)phenyl)(4-ethylpiperazin-1-yl)methanone]
- Concentration up to which the cell line panel was not sensitive (HCT-116 cell line panel; Figure 3C): > 100 µM
- half-life at 100 µM [2, 5]: 6.56 h

Compound: CS(=O)(=O)OCCN(CCBr)c1c(C(=O)NCCO)cc([N+](=O)[O-])cc1[N+](=O)[O-] [PR-104A, reference compound]
- KO2 (O2 concentration of half-maximal activation) [3]: 0.126 µM O2
- Safe human exposure levels as percent of those observed in mice [4]: 10–29%

Compound: N[14C](N)=O [[^14C]-urea]
- DMCL in HCT-116 MCLs (POR-R MCLs): 3.67 x 10^−7 cm^2 s^−1
